# From publication PMC12274739, “Differential substrate degradation by super-degron: EGFP in wild-type mouse cells, PD-1 requires CRBN humanization” (iScience, 2025)
# Like-named read-outs stand apart in the source and are kept apart here. Residues, ends and D or L forms follow the SMILES beside them. *: point of attachment. Cbz = O=C(OCc1ccccc1)*
# Experiments:
# [1] = system: degradation of SD-tagged EGFP; assay: Inhibition of IBR-induced degradation of SD-EGFP or EGFP-SD in B6J-S1 by pathway inhibitors; assay type: cell-based, mouse; settings: B6J-S1, IBR fixed at 1 μM, 24 h
# [2] = target: EGFP-ZFP91 (UniProt P42212+Q8C7D2, F64L/H231L/INS1V/S65T); assay type: cell-based, mouse; settings: CrbnI391V/I391V mESCs; for Bottom, EGFP-ZFP91 / LogDC50, EGFP-ZFP91 / DC50: stable, Figure 5E; for DC50: read-out: DC50, EGFP-ZFP91
# [3] = target: EGFP-IKZF (UniProt P42212+Q8C7D2, F64L/H231L/INS1V/S65T); assay type: cell-based, mouse; settings: for Bottom, EGFP-IKZF / LogDC50, EGFP-IKZF / DC50: stable; for DC50: read-out: DC50, EGFP-IKZF
# [4] = target: EGFP-SD (Aequorea victoria, UniProt P42212, F64L/H231L/S65T); assay type: cell-based, mouse; settings: stable; for DC50: read-out: DC50, EGFP-SD
# [5] = in vivo; cited from earlier work
# [6] = CrbnI391V/I391V mESCs, Figure 5E
compound,measurement,setting,value
CCOC(=O)c1ccc(N2NC(=O)/C(=C/c3ccc([N+](=O)[O-])o3)C2=O)cc1 [PYR-41],effect on IBR-induced EGFP degradation,[1],did not affect the degradation of EGFP
CCN(CC)CCCC(C)Nc1ccnc2cc(Cl)ccc12 (centres unmarked) [chloroquine],effect on IBR-induced EGFP degradation,[1],but not by chloroquine
"Cc1nc2cccc(N)c2c(=O)n1C1CCC(=O)NC1=O (centres unmarked) [AVA, avadomide]","Bottom, EGFP-ZFP91",[2],0.1629
same,"LogDC50, EGFP-ZFP91",[2],-1.296 μM
same,DC50,[2],50.5 nM
same,"Bottom, EGFP-IKZF","[3]; B6J-S1 mESCs, Figure 5D",0.07112
same,"LogDC50, EGFP-IKZF","[3]; B6J-S1 mESCs, Figure 5D",-0.9014 μM
same,"Bottom, EGFP-IKZF",[3]; [6],0.1373
same,"LogDC50, EGFP-IKZF",[3]; [6],-1.87 μM
same,EGFP-IKZF amount compared to other reagents,"[3]; mESCs, 0.1 and 1 μM",significantly reduced
same,DC50,"[3]; B6J-S1 mESCs, Figure 5D",126 nM
same,DC50,[3]; [6],13.5 nM
same,"Bottom, EGFP-SD","[4]; B6J-S1 mESCs, Figure 5D",0.01996
same,"LogDC50, EGFP-SD","[4]; B6J-S1 mESCs, Figure 5D",-2.1 μM
same,"Bottom, EGFP-SD",[4]; [6],0.06758
same,"LogDC50, EGFP-SD",[4]; [6],-2.187 μM
same,DC50,"[4]; B6J-S1 mESCs, Figure 5D",7.94 nM
same,DC50,[4]; [6],6.5 nM
"N#Cc1ccc(N2CCN(Cc3ccc(COc4cccc5c4CN([C@H]4CCC(=O)NC4=O)C5=O)cc3)CC2)c(F)c1 [MZG, mezigdomide]",degradation of EGFP-ZFP91,[2],efficiently degraded
same,"Bottom, EGFP-ZFP91",[2],0.03183
same,"LogDC50, EGFP-ZFP91",[2],-3.343 μM
same,DC50,[2],0.454 nM
same,"Bottom, EGFP-IKZF","[3]; B6J-S1 mESCs, Figure 5D",0.385
same,"LogDC50, EGFP-IKZF","[3]; B6J-S1 mESCs, Figure 5D",-1.952 μM
same,"Bottom, EGFP-IKZF",[3]; [6],0.1226
same,"LogDC50, EGFP-IKZF",[3]; [6],-3.265 μM
same,DC50,"[3]; B6J-S1 mESCs, Figure 5D",11.2 nM
same,DC50,[3]; [6],0.543 nM
same,"Bottom, EGFP-SD","[4]; B6J-S1 mESCs, Figure 5D",0.0126
same,"LogDC50, EGFP-SD","[4]; B6J-S1 mESCs, Figure 5D",-3.875 μM
same,"Bottom, EGFP-SD",[4]; [6],0.0164
same,"LogDC50, EGFP-SD",[4]; [6],-4.187 μM
same,DC50,"[4]; B6J-S1 mESCs, Figure 5D",0.133 nM
same,DC50,[4]; [6],0.0651 nM
NS(=O)(=O)OC[C@H]1C[C@@H](Nc2ccnc3cc(-c4cccc(SC(F)(F)F)c4)nn23)[C@H](O)[C@@H]1O [TAK-243],effect on IBR-induced EGFP degradation,[1],inhibited in a concentration-dependent manner
CC[C@H](C(=O)N1CCCC[C@H]1C(=O)O[C@H](CCc1ccc(OC)c(OC)c1)c1ccccc1OCC(=O)NCCCCCCOc1cccc2c1C(=O)N(C1CCC(=O)NC1=O)C2=O)c1cc(OC)c(OC)c(OC)c1 (some centres unmarked) [dTAG-13],blood-brain barrier (BBB) passage,[5],cannot cross the blood-brain barrier
CC(C)C[C@@H](C=O)NC(=O)[C@H](CC(C)C)NC(=O)[C@H](CC(C)C)NC(=O)OCc1ccccc1 [MG-132] (Cbz-Leu-Leu-Leu-aldehyde),effect on IBR-induced EGFP degradation,[1],inhibited in a concentration-dependent manner
"NS(=O)(=O)OC[C@@H]1C[C@@H](n2ccc3c(N[C@H]4CCc5ccccc54)ncnc32)C[C@@H]1O [MNL4924, pevonedistat]",effect on IBR-induced EGFP degradation,[1],inhibited in a concentration-dependent manner
